{"source": "ChEMBL document CHEMBL1201862", "about": "“PubChem BioAssay data set” (2004)", "experiment_in_all_cases": "NCI anticancer screen, dose series, 48 h", "key": {"786-0": {"test_system": "786-0"}, "A549": {"test_system": "A549"}, "ACHN": {"test_system": "ACHN"}, "CAKI-1": {"test_system": "CAKI-1"}, "CCRF-CEM": {"test_system": "CCRF-CEM"}, "COLO 205": {"test_system": "COLO 205"}, "DLD-1": {"test_system": "DLD-1"}, "DMS-114": {"test_system": "DMS-114"}, "DMS-273": {"test_system": "DMS-273"}, "DU-145": {"test_system": "DU-145"}, "EKVX": {"test_system": "EKVX"}, "HCC 2998": {"test_system": "HCC 2998"}, "HCT-116": {"test_system": "HCT-116"}, "HCT-15": {"test_system": "HCT-15"}, "HL-60": {"test_system": "HL-60"}, "HOP-18": {"test_system": "HOP-18"}, "HOP-62": {"test_system": "HOP-62"}, "HOP-92": {"test_system": "HOP-92"}, "HT-29": {"test_system": "HT-29"}, "IGROV-1": {"test_system": "IGROV-1"}, "K562": {"test_system": "K562"}, "KM-20L2": {"test_system": "KM-20L2"}, "KM12": {"test_system": "KM12"}, "LOX IMVI": {"test_system": "LOX IMVI"}, "LXFL 529": {"test_system": "LXFL 529"}, "M14": {"test_system": "M14"}, "M19-MEL": {"test_system": "M19-MEL"}, "MCF7": {"test_system": "MCF7"}, "MDA-MB-231": {"test_system": "MDA-MB-231"}, "MDA-MB-435": {"test_system": "MDA-MB-435"}, "MDA-N": {"test_system": "MDA-N"}, "MOLT-4": {"test_system": "MOLT-4"}, "Malme-3M": {"test_system": "Malme-3M"}, "NCI-H226": {"test_system": "NCI-H226"}, "NCI-H23": {"test_system": "NCI-H23"}, "NCI-H460": {"test_system": "NCI-H460"}, "NCI-H522": {"test_system": "NCI-H522"}, "NCI/ADR-RES": {"test_system": "NCI/ADR-RES"}, "OVCAR-3": {"test_system": "OVCAR-3"}, "OVCAR-4": {"test_system": "OVCAR-4"}, "OVCAR-5": {"test_system": "OVCAR-5"}, "OVCAR-8": {"test_system": "OVCAR-8"}, "PC-3": {"test_system": "PC-3"}, "RPMI-8226": {"test_system": "RPMI-8226"}, "RXF 393": {"test_system": "RXF 393"}, "RXF 631": {"test_system": "RXF 631"}, "SF-268": {"test_system": "SF-268"}, "SF-295": {"test_system": "SF-295"}, "SF-539": {"test_system": "SF-539"}, "SK-MEL-28": {"test_system": "SK-MEL-28"}, "SK-MEL-2": {"test_system": "SK-MEL-2"}, "SK-MEL-5": {"test_system": "SK-MEL-5"}, "SK-OV-3": {"test_system": "SK-OV-3"}, "SN12C": {"test_system": "SN12C"}, "SNB-19": {"test_system": "SNB-19"}, "SNB-75": {"test_system": "SNB-75"}, "SNB-78": {"test_system": "SNB-78"}, "SR": {"test_system": "SR"}, "SW-620": {"test_system": "SW-620"}, "T47D": {"test_system": "T47D"}, "TK-10": {"test_system": "TK-10"}, "U-251": {"test_system": "U-251"}, "UACC-257": {"test_system": "UACC-257"}, "UACC-62": {"test_system": "UACC-62"}, "UO-31": {"test_system": "UO-31"}, "XF498": {"test_system": "XF498"}}, "note": "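Growth conditions: 96-well plates. Treatment: test compound, 48 hours, 5 concentrations. Analysis: linear interpolation between bracketing concentrations; unreached endpoints set to highest concentration. Abbreviation: GI50, concentration required for 50% inhibition of growth.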 Calls of active or inactive are those of the source. No stated cut-off is given here; in the data, active = GI50 up to about 1.1 µM and inactive = higher.", "data": [{"smiles": "CC(C)CCCCCCCCCCCCC(=O)NCC(=O)NC1C(C)OC(Nc2[nH]cnc3ncnc2-3)C(O)C1O", "note": "(stereo unspecified)", "values": [{"measurement": "GI50", "setting": "786-0", "result": "0.491 nM (active)"}, {"measurement": "GI50", "setting": "A549", "result": "1.28 nM (active)"}, {"measurement": "GI50", "setting": "ACHN", "result": "0.468 nM (active)"}, {"measurement": "GI50", "setting": "CAKI-1", "result": "< 10 nM (active)"}, {"measurement": "GI50", "setting": "CCRF-CEM", "result": "4.8 nM (active)"}, {"measurement": "GI50", "setting": "COLO 205", "result": "0.622 nM (active)"}, {"measurement": "GI50", "setting": "DLD-1", "result": "10 nM (active)"}, {"measurement": "GI50", "setting": "DMS-114", "result": "< 31.6 nM (active)"}, {"measurement": "GI50", "setting": "DMS-273", "result": "< 10 nM (active)"}, {"measurement": "GI50", "setting": "DU-145", "result": "2.2 nM (active)"}, {"measurement": "GI50", "setting": "EKVX", "result": "5.75 nM (active)"}, {"measurement": "GI50", "setting": "HCC 2998", "result": "0.331 nM (active)"}, {"measurement": "GI50", "setting": "HCT-116", "result": "0.244 nM (active)"}, {"measurement": "GI50", "setting": "HCT-15", "result": "< 24.7", "unit": "nM"}, {"measurement": "GI50", "setting": "HL-60", "result": "0.746 nM (active)"}, {"measurement": "GI50", "setting": "HOP-18", "result": "< 10 nM (active)"}, {"measurement": "GI50", "setting": "HOP-62", "result": "0.361 nM (active)"}, {"measurement": "GI50", "setting": "HOP-92", "result": "0.28 nM (active)"}, {"measurement": "GI50", "setting": "HT-29", "result": "1.25 nM (active)"}, {"measurement": "GI50", "setting": "IGROV-1", "result": "0.782 nM (active)"}, {"measurement": "GI50", "setting": "K562", "result": "6.44 nM (active)"}, {"measurement": "GI50", "setting": "KM-20L2", "result": "< 10 nM (active)"}, {"measurement": "GI50", "setting": "KM12", "result": "0.341 nM (active)"}, {"measurement": "GI50", "setting": "LOX IMVI", "result": "0.262 nM (active)"}, {"measurement": "GI50", "setting": "LXFL 529", "result": "0.588 nM (active)"}, {"measurement": "GI50", "setting": "M14", "result": "0.487 nM (active)"}, {"measurement": "GI50", "setting": "M19-MEL", "result": "< 10 nM (active)"}, {"measurement": "GI50", "setting": "MCF7", "result": "< 10 nM (active)"}, {"measurement": "GI50", "setting": "MDA-MB-231", "result": "< 10 nM (active)"}, {"measurement": "GI50", "setting": "MDA-MB-435", "result": "5.71 nM (active)"}, {"measurement": "GI50", "setting": "MDA-N", "result": "< 10 nM (active)"}, {"measurement": "GI50", "setting": "MOLT-4", "result": "1.02 nM (active)"}, {"measurement": "GI50", "setting": "Malme-3M", "result": "0.332 nM (active)"}, {"measurement": "GI50", "setting": "NCI-H226", "result": "2.4 nM (active)"}, {"measurement": "GI50", "setting": "NCI-H23", "result": "5.36 nM (active)"}, {"measurement": "GI50", "setting": "NCI-H460", "result": "0.158 nM (active)"}, {"measurement": "GI50", "setting": "NCI-H522", "result": "2.73 nM (active)"}, {"measurement": "GI50", "setting": "NCI/ADR-RES", "result": "2.21 nM (active)"}, {"measurement": "GI50", "setting": "OVCAR-3", "result": "0.173 nM (active)"}, {"measurement": "GI50", "setting": "OVCAR-4", "result": "0.98 nM (active)"}, {"measurement": "GI50", "setting": "OVCAR-5", "result": "1.23 nM (active)"}, {"measurement": "GI50", "setting": "OVCAR-8", "result": "0.153 nM (active)"}, {"measurement": "GI50", "setting": "PC-3", "result": "4.33 nM (active)"}, {"measurement": "GI50", "setting": "RPMI-8226", "result": "0.568 nM (active)"}, {"measurement": "GI50", "setting": "RXF 393", "result": "< 10 nM (active)"}, {"measurement": "GI50", "setting": "RXF 631", "result": "0.0354 nM (active)"}, {"measurement": "GI50", "setting": "SF-268", "result": "0.635 nM (active)"}, {"measurement": "GI50", "setting": "SF-295", "result": "2.34 nM (active)"}, {"measurement": "GI50", "setting": "SF-539", "result": "0.931 nM (active)"}, {"measurement": "GI50", "setting": "SK-MEL-28", "result": "< 10 nM (active)"}, {"measurement": "GI50", "setting": "SK-MEL-2", "result": "3.85 nM (active)"}, {"measurement": "GI50", "setting": "SK-MEL-5", "result": "2.89 nM (active)"}, {"measurement": "GI50", "setting": "SK-OV-3", "result": "< 10 nM (active)"}, {"measurement": "GI50", "setting": "SN12C", "result": "2.14 nM (active)"}, {"measurement": "GI50", "setting": "SNB-19", "result": "2.1 nM (active)"}, {"measurement": "GI50", "setting": "SNB-75", "result": "0.535 nM (active)"}, {"measurement": "GI50", "setting": "SNB-78", "result": "0.646 nM (active)"}, {"measurement": "GI50", "setting": "SR", "result": "1.53 nM (active)"}, {"measurement": "GI50", "setting": "SW-620", "result": "1.01 nM (active)"}, {"measurement": "GI50", "setting": "T47D", "result": "2.35 nM (active)"}, {"measurement": "GI50", "setting": "TK-10", "result": "1.02 nM (active)"}, {"measurement": "GI50", "setting": "U-251", "result": "0.425 nM (active)"}, {"measurement": "GI50", "setting": "UACC-257", "result": "< 10 nM (active)"}, {"measurement": "GI50", "setting": "UACC-62", "result": "< 10 nM (active)"}, {"measurement": "GI50", "setting": "UO-31", "result": "0.381 nM (active)"}, {"measurement": "GI50", "setting": "XF498", "result": "< 10 nM (active)"}]}]}
